The IC50 is the concentration that gives 50% inhibition.

From US12084430B2, “Tricyclic urea compounds as JAK2 V617F inhibitors” (Incyte Corporation, priority 2022, dated 2024) come the findings set out here.

Some results are limits rather than exact numbers.

The target in data set [1] is TRKA (Homo sapiens, UniProt P04629). The data set is described as follows: TRKA enzymatic assay. Type of data set: biochemical. The settings on record: 1 mM ATP. As for the experimental part: (§1) Example I. TRKA Enzymatic Assay
(§2) The kinase assays were carried out at 24° C. temperature in assay buffer (HEPES 50 mM, pH 7.0, NaN3 0.02%, BSA 0.01%, Orthovanadate 0.1 mM, DTT 1 mM, MgCl2 10 mM) in a final volume of 10 μL. Testing compounds were prepared by serial dilution in DMSO and transferred to the plate wells by ECHO liquid handler (Labcyte) with 0.5% DMSO in the final assay. […]. Reactions were initiated by the addition of 5 μL ATP in assay buffer. The final 10 μL kinase reaction consists of 0.58 nM TRKA, 1 mM ATP, 500 nM TK Substrate-biotin and SEB reagent 62.5 nM in assay buffer. […] After 60 minutes incubation at room temperature, the product activity was determined by measuring the fluorescence at 620 nm and 665 nm on Pherastar microplate reader (BMG Labtech). A ratio is calculated (665/620 nm) for each well. Wells with DMSO only were served as the positive controls and wells containing no ATP were used as negative controls. IC50 determination was performed by fitting the curve of percent control activity versus the log of the compound concentration using the Gene data.

For data set [2], the system named is TRKA. Description: TRKA enzymatic assay. Type of data set: biochemical. The method, then: as §1, §2
In data set [3] the test system is STAT5 (Tyr694) phosphorylation in SET-2 cells. Description: STAT5 (Tyr694) phosphorylation cell based assay. The settings on record: Homo sapiens, pSTAT5, 2 hours, read-out: SET2 IC50. As for the experimental part:
Example E. STAT5 (Tyr694) Phosphorylation Cell Based Assay
SET-2 cells was purchased from DSMZ (Germany). RPMI1640 medium, Fetal Bovine Serum and 384-white sold flat-bottom small volume plate were purchased from Thermo Fisher Scientific (Waltham, MA). Phospho-STAT5 (Tyr694) HTRF kit was purchased from Perkin Elmer (Waltham, MA).
SET-2 cells were cultured in RPMI media with 20% FBS at 37° C. in humidified incubator supplied with 5% CO2. On the day of assay, the cells were centrifuged to remove the culture media and resuspended with prewarmed RPMI with 10% FBS. Testing compounds were prepared by serial dilution in DMSO and 50 nL/well test compounds were transferred to the 384 white low volume cell culture plate (Greiner Bio-one) by ECHO liquid handler (Labcyte). The cells were then dispensed with Multidrop (Thermo Fisher, Waltham, MA) at 10 μL/well (7×10^6 cells/mL) with 0.5% DMSO in the final assay. After the treated cells were incubated for 2 hours at 37° C./5% CO2 incubator, 4 μL/well supplemented lysis buffer (100× blocking buffer diluted 25 fold in 4× lysis buffer, Perkin Elmer) were added and incubated at room temperature for 90 min on orbital shaker at 600 rpm. Phospho-STAT5 Cryptate antibody and Phospho-STAT5 d2 antibody (1:1 vol/vol) were premixed and diluted 20 fold with in the detection buffer (Perkin Elmer). 4 μL of the premixed antibody solution were added to each well followed with 24 hours incubation at room temperature on orbital shaker at 600 rpm. The product activity was determined by measuring the fluorescence at 620 nm and 665 nm on Pherastar microplate reader (BMG Labtech). A ratio is calculated (665/620) for each well. Wells with DMSO only served as the positive controls and wells containing high concentration of control compound were used as negative controls. IC50 determination was performed by fitting the curve of percent control activity versus the log of the compound concentration using the GraphPad Prism 7.0 software.

The nature of data set [4]: In vitro intrinsic clearance. The settings on record: human liver microsomes, 1 μM. Type of data set: in vitro ADME. The method, then: Example G. In Vitro Intrinsic Clearance Protocol
For in vitro metabolic stability experiments, test compounds were incubated with human liver microsomes at 37° C. The incubation mixture contained test compounds (1 μM), NADPH (2 mM), and human liver microsomes (0.5 mg protein/mL) in 100 mM phosphate buffer (pH 7.4). The mixture was pre-incubated for 2 min at 37° C. before the addition of NADPH. Reactions were commenced upon the addition of NADPH and quenched with ice-cold methanol at 0, 10, 20, and 30 min. Terminated incubation mixtures were analyzed using LC-MS/MS system. The analytical system consisted of a Shimadzu LC-30AD binary pump system and SIL-30AC autosampler (Shimadzu Scientific Instruments, Columbia, MD) coupled with a Sciex Triple Quad 6500+ mass spectrometer from Applied Biosystems (Foster City, CA). […] Mobile phase A consisted of 0.1% formic acid in water, and mobile phase B consisted of 0.1% formic acid in acetonitrile. The total LC-MS/MS runtime was 2.75 minutes with a flow rate of 0.75 mL/min. Peak area integrations and peak area ratio calculations were performed using Analyst software (version 1.6.3) from Applied Biosystems.
The in vitro intrinsic clearance, CLint, in vitro, was calculated from the t1/2 of test compound disappearance as CLint, in vitro=(0.693/t1/2)×(1/Cprotein), where Cprotein is the protein concentration during the incubation, and t1/2 was determined by the slope (k) of the log-linear regression analysis of the concentration versus time profiles; thus, t1/2=ln 2/k. The CLint, in vitro values were scaled to the in vivo values for human by using physiologically based scaling factors, hepatic microsomal protein concentrations (45 mg protein/g liver), and liver weights (21 g/kg body weight). The equation CLint=CLint, in vitro×(mg protein/g liver weight)×(g liver weight/kg body weight) was used. The in vivo hepatic clearance (CLH) was then calculated by using CLint and hepatic blood flow, Q (20 mL·min^−1·kg^−1 in humans) in the well-stirred liver model disregarding all binding from CLH=(Q×CLint)/(Q+CLint). The hepatic extraction ratio was calculated as CLH divided by Q.
A general note: Microsomes from liver hold many membrane-bound enzymes, among them those of drug oxidation.

Chain of TRKA (Homo sapiens, UniProt P04629) (P04629 33-796, species assumed): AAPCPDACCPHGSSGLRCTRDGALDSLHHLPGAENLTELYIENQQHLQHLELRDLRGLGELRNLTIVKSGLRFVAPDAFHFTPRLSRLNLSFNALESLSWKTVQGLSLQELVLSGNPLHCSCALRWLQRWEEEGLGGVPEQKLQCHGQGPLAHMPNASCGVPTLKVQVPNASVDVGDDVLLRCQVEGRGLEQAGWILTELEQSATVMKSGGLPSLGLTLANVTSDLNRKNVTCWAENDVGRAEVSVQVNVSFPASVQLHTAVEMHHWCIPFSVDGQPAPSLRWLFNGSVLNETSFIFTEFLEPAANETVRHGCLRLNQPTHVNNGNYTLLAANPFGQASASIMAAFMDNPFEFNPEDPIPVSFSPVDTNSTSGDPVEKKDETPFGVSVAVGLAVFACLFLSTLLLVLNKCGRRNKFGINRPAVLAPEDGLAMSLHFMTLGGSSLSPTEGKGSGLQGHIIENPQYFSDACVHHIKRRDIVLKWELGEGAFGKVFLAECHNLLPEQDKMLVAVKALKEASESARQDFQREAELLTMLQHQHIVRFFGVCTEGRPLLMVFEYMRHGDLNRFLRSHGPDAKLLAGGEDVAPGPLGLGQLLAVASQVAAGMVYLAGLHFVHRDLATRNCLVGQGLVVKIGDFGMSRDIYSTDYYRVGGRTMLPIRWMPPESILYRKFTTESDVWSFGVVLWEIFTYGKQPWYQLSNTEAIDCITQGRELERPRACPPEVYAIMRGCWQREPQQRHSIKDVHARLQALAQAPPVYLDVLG

As to `[2H]C([2H])([2H])n1cc(-c2[nH]c3ncc4c(c3c2-c2ccc3c(cnn3C([2H])([2H])[2H])c2)n([C@@H]2CC[C@@H](NC(=O)OC)C2)c(=O)n4C([2H])([2H])[2H])c(F)n1` [Example 6, Methyl ((1R,3R)-3-(7-(3-fluoro-1-(methyl-d3)-1H-pyrazol-4-yl)-3-(methyl-d3)-8-(1-(methyl-d3)-1H-indazol-5-yl)-2-oxo-3,6-dihydroimidazo[4,5-d]pyrrolo[2,3-b]pyridin-1(2H)-yl)cyclopentyl)carbamate], the half-inhibitory concentration (IC50) against TRKA [1] is over 2500 nM; in data set [3] it was at most 300 nM. In addition, in the data set on TRKA [2], the “Selectivity TRKA/JH2 V617F” value was “****** (selectivity of >12500-fold)”. Further, the h-IntCL result in data set [4] is “‡ ‡ (h-IntCL of ≥0.7 L/h/kg to ≤1 L/h/kg)”.
In the same order, the values of `COC(=O)N[C@@H]1CC[C@@H](n2c(=O)n(C)c3cnc4[nH]c(-c5cn(C)nc5OC)c(-c5ccccc5)c4c32)C1` [Example 2, Methyl ((1R,3R)-3-(7-(3-methoxy-1-methyl-1H-pyrazol-4-yl)-3-methyl-2-oxo-8-phenyl-3,6-dihydroimidazo[4,5-d]pyrrolo[2,3-b]pyridin-1(2H)-yl)cyclopentyl)carbamate] are over 2500 nM, 300 to 800 nM, “**** (selectivity of >1750-fold to ≤5000-fold)” and “‡ ‡ (h-IntCL of ≥0.7 L/h/kg to ≤1 L/h/kg)”.
As for `[2H]C([2H])([2H])n1cc(-c2[nH]c3ncc4c(c3c2-c2ccc(C(C)(C)O)cc2)n([C@@H]2CC[C@@H](NC(=O)OC)C2)c(=O)n4C([2H])([2H])[2H])c(F)n1` [Example 10, Methyl ((1R,3R)-3-(7-(3-fluoro-1-(methyl-d3)-1H-pyrazol-4-yl)-8-(4-(2-hydroxypropan-2-yl)phenyl)-3-(methyl-d3)-2-oxo-3,6-dihydroimidazo[4,5-d]pyrrolo[2,3-b]pyridin-1(2H)-yl)cyclopentyl)carbamate], the IC50 was over 2500 nM against TRKA [1] and at most 300 nM in data set [3]. Also, the “Selectivity TRKA/JH2 V617F” value in the data set with TRKA [2] is “****** (selectivity of >12500-fold)”. Further, the h-IntCL result in data set [4] was “‡ ‡ (h-IntCL of ≥0.7 L/h/kg to ≤1 L/h/kg)”.
`COc1nn(C)cc1-c1[nH]c2ncc3c(c2c1-c1ccc2c(cnn2C)c1)n([C@H]1CC[C@@H](CC#N)CC1)c(=O)n3C` [E, reference compound]: the IC50 against TRKA [1] lay in the range of 250 to 1250 nM; in data set [3], 300 to 800 nM. Besides, the “Selectivity TRKA/JH2 V617F” value in the data set on TRKA [2] is given as “** (selectivity of >500-fold to ≤1500-fold)”. In addition, in data set [4], the h-IntCL result is reported as “‡ ‡ ‡ (h-IntCL of >1 L/h/kg)”.
As to `[2H]C([2H])([2H])n1c(=O)n([C@@H]2CC[C@@H](NC(=O)OC)C2)c2c3c(-c4ccc5c(c4)COC5(C)C)c(-c4cn(CC)nc4F)[nH]c3ncc21` [Example 20, Methyl ((1R,3R)-3-(8-(1,1-dimethyl-1,3-dihydroisobenzofuran-5-yl)-7-(1-ethyl-3-fluoro-1H-pyrazol-4-yl)-3-(methyl-d3)-2-oxo-3,6-dihydroimidazo[4,5-d]pyrrolo[2,3-b]pyridin-1(2H)-yl)cyclopentyl)carbamate], the IC50 is over 2500 nM at TRKA [1] and at most 300 nM in data set [3]. The “Selectivity TRKA/JH2 V617F” value in the data set with TRKA [2] was “****** (selectivity of >12500-fold)”. Moreover, the h-IntCL result in data set [4] is “‡ ‡ (h-IntCL of ≥0.7 L/h/kg to ≤1 L/h/kg)”.
Turning to `[2H]C([2H])([2H])n1c(=O)n([C@@H]2CC[C@@H](NC(=O)OC)C2)c2c3c(-c4ccc5c(c4)COC5(C)C)c(-c4cn(C([2H])([2H])C([2H])([2H])[2H])nc4F)[nH]c3ncc21` [Example 19, Methyl ((1R,3R)-3-(8-(1,1-dimethyl-1,3-dihydroisobenzofuran-5-yl)-7-(1-(ethyl-d5)-3-fluoro-1H-pyrazol-4-yl)-3-(methyl-d3)-2-oxo-3,6-dihydroimidazo[4,5-d]pyrrolo[2,3-b]pyridin-1(2H)-yl)cyclopentyl)carbamate], the IC50 was over 2500 nM against TRKA [1] and at most 300 nM in data set [3]. For the same molecule, the “Selectivity TRKA/JH2 V617F” value in the data set with TRKA [2] is listed as “****** (selectivity of >12500-fold)”. Moreover, the h-IntCL entry in data set [4] is given as “‡ ‡ (h-IntCL of ≥0.7 L/h/kg to ≤1 L/h/kg)”.
Regarding `[2H]C([2H])([2H])n1cc(-c2[nH]c3ncc4c(c3c2-c2ccc(F)cc2)n([C@@H]2CC[C@@H](NC(=O)OC)C2)c(=O)n4C([2H])([2H])[2H])c(F)n1` [Example 7, Methyl ((1R,3R)-3-(7-(3-fluoro-1-(methyl-d3)-1H-pyrazol-4-yl)-8-(4-fluorophenyl)-3-(methyl-d3)-2-oxo-3,6-dihydroimidazo[4,5-d]pyrrolo[2,3-b]pyridin-1(2H)-yl)cyclopentyl)carbamate], the figures for the IC50 (against TRKA [1]; in data set [3]) were over 2500 nM and 300 to 800 nM, respectively. The “Selectivity TRKA/JH2 V617F” value in the data set on TRKA [2] is reported as “***** (selectivity of >5000-fold to ≤12500-fold)”. Further, in data set [4], the h-IntCL result is reported as “‡ (h-IntCL of <0.7 L/h/kg)”.
Regarding `[2H]C([2H])([2H])n1cc(-c2[nH]c3ncc4c(c3c2-c2ccc3c(cnn3C(C)C)c2)n([C@@H]2CC[C@@H](NC(=O)OC)C2)c(=O)n4C([2H])([2H])[2H])c(F)n1` [Example 13, Methyl ((1R,3R)-3-(7-(3-fluoro-1-(methyl-d3)-1H-pyrazol-4-yl)-8-(1-isopropyl-1H-indazol-5-yl)-3-(methyl-d3)-2-oxo-3,6-dihydroimidazo[4,5-d]pyrrolo[2,3-b]pyridin-1(2H)-yl)cyclopentyl)carbamate], the IC50 against TRKA [1] was over 2500 nM; in data set [3], at most 300 nM. In addition, the “Selectivity TRKA/JH2 V617F” value in the data set on TRKA [2] is on record as “****** (selectivity of >12500-fold)”. Besides, in data set [4], the h-IntCL entry is recorded as “‡ ‡ (h-IntCL of ≥0.7 L/h/kg to ≤1 L/h/kg)”.
In the case of `COc1nn(C)cc1-c1[nH]c2ncc3c(c2c1-c1ccc2c(cnn2C)c1)n(C1CCOCC1)c(=O)n3C` [A, reference compound], the values for the IC50 (on TRKA [1]; in data set [3]) were 1250 to 2500 nM and over 800 nM, respectively. Further, the “Selectivity TRKA/JH2 V617F” value with TRKA [2] is given as “** (selectivity of >500-fold to ≤1500-fold)”. The h-IntCL result in data set [4] is recorded as “‡ ‡ ‡ (h-IntCL of >1 L/h/kg)”.
In the case of `[2H]C([2H])([2H])n1cc(-c2[nH]c3ncc4c(c3c2-c2cc(F)c3c(cnn3C([2H])([2H])[2H])c2)n([C@@H]2CC[C@@H](NC(=O)OC)C2)c(=O)n4C([2H])([2H])[2H])c(F)n1` [Example 17, Methyl ((1R,3R)-3-(8-(7-fluoro-1-(methyl-d3)-1H-indazol-5-yl)-7-(3-fluoro-1-(methyl-d3)-1H-pyrazol-4-yl)-3-(methyl-d3)-2-oxo-3,6-dihydroimidazo[4,5-d]pyrrolo[2,3-b]pyridin-1(2H)-yl)cyclopentyl)carbamate], the results for the IC50 (on TRKA [1]; in data set [3]) were over 2500 nM and at most 300 nM, respectively. In addition, the “Selectivity TRKA/JH2 V617F” value in the data set with TRKA [2] is recorded as “****** (selectivity of >12500-fold)”. Further, the h-IntCL result in data set [4] was “‡ ‡ (h-IntCL of ≥0.7 L/h/kg to ≤1 L/h/kg)”.
